Experimental data: US9302999B2, “Substituted triazoles as herbicides” (E. I. DU PONT DE NEMOURS AND COMPANY, priority 2012, dated 2016)

Assays:
Type in all cases: in vivo
[1] = tested on: goosegrass (Eleusine indica); assay: Test F pre-/postemergence: goosegrass; conditions: Preemergence
Description: (§1) Seeds of plant species selected from corn (Zea mays), soybean (Glycine max), velvetleaf (Abutilon theophrasti), lambsquarters (Chenopodium album), poinsettia, wild (wild poinsettia, Euphorbia heterophylla), pigweed, palmer (palmer pigweed, Amaranthus palmeri), waterhemp (common waterhemp, Amaranthus rudis), surinam grass (Brachiaria decumbens), crabgrass, Brazil (Brazilian crabgrass, Digitaria horizontalis), panicum, fall (fall panicum Panicum dichotomiflorum), crabgrass, large (large crabgrass, Digitaria sanguinalis), foxtail, giant (giant foxtail, Setaria faberii), foxtail, green (green foxtail Setaria viridis), goosegrass (Eleusine indica), ragweed (common ragweed, Ambrosia elatior), barnyardgrass (Echinochloa crus-galli), sandbur (southern sandbur, Cenchrus echinatus), arrowleaf sida (Sida rhombifolia), ryegrass, Italian (Italian ryegrass, Lolium multiflorum), dayflower, VA (Virginia (VA) dayflower, Commelina virginica), field bindweed (Convolvulus arvensis), cocklebur (common cocklebur, Xanthium strumarium), morningglory (Ipomoea coccinea), nightshade (eastern black nightshade, Solanum ptycanthum), kochia (Kochia scoparia), nutsedge, yellow (yellow nutsedge, Cyperus esculentus), johnsongrass (Sorghum halepense), smartweed (ladysthumb smartweed, Polygonum persicaria), and beggarticks (hairy beggarticks, Bidens pilosa), were planted into a silt loam soil and treated preemergence with test chemicals formulated in a non-phytotoxic solvent mixture which included a surfactant. At the same time, plants selected from these crop and weed species and also pigweed (Amaranthus retroflexus), waterhemp_RES1 (ALS/Triazine resistant common waterhemp, Amaranthus rudis) and waterhemp_RES2 (ALS/HPPD resistant common waterhemp, Amaranthus rudis) were planted in pots containing a planting medium comprising spaghnum peat moss, vermiculite, wetting agent and starter nutrients treated with postemergence applications of some of the test chemicals formulated in the same manner. Plants ranged in height from 2 to 18 cm for postemergence treatments (1- to 4-leaf stage).
(§2) Treated plants and controls were maintained in a greenhouse for 14 to 21 days, after which time all species were compared to controls and visually evaluated. Plant response ratings, summarized in Table E, are based on a scale of 0 to 100 where 0 is no effect and 100 is complete control. A dash (-) response means no test result.

[2] = tested on: crabgrass, Brazil (Brazilian crabgrass, Digitaria horizontalis); assay: Test F pre-/postemergence: crabgrass, Brazil; conditions: Preemergence
Description: as §1, §2

[3] = tested on: nightshade (eastern black nightshade, Solanum ptycanthum); assay: Test F pre-/postemergence: nightshade; conditions: Preemergence
Description: as §1, §2

[4] = tested on: buckwheat, wild (wild buckwheat, Polygonum convolvulus); assay: Test D pre-/postemergence: buckwheat, wild
Summary of the method: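 Pre- and postemergence herbicide screen. Soil for pre: silt loam; post medium: peat moss, vermiculite, wetting agent, starter nutrients. Plant stage at post: 1- to 4-leaf. Readout: visual % control, 14–21 days.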

[5] = tested on: mustard, wild (wild mustard, Sinapis arvensis); assay: Test D pre-/postemergence: mustard, wild
Description: Seeds of plant species selected from bluegrass (annual bluegrass, Poa annua), blackgrass (Alopecurus myosuroides), canarygrass (Phalaris minor), chickweed (common chickweed, Stellaria media), galium (catchweed bedstraw, Galium aparine), bromegrass, downy (downy bromegrass, Bromus tectorum), field poppy (Papaver rhoeas), field violet (Viola arvensis), foxtail, green (green foxtail, Setaria viridis), deadnettle (henbit deadnettle, Lamium amplexicaule), ryegrass, Italian (Italian ryegrass, Lolium multiflorum), kochia (Kochia scoparia), lambsquarters (Chenopodium album), oilseed rape (Brassica napus), pigweed (Amaranthus retroflexus), Russian thistle (Salsola iberica), chamomile (scentless chamomile, Matricaria inodora), speedwell (bird's-eye speedwell, Veronica persica), barley, spring (spring barley, Hordeum vulgare), wheat, spring (spring wheat, Triticum aestivum), buckwheat, wild (wild buckwheat, Polygonum convolvulus), mustard, wild (wild mustard, Sinapis arvensis), oat, wild (wild oat, Avena fatua), radish, wild (wild radish, Raphanus raphanistrum), windgrass (Apera spica-venti), barley, winter (winter barley, Hordeum vulgare), and wheat, winter (winter wheat, Triticum aestivum) were planted into a silt loam soil and treated preemergence with test chemicals formulated in a non-phytotoxic solvent mixture which included a surfactant. At the same time, these same crop and weed species were planted in pots containing the planting medium comprising spaghnum peat moss, vermiculite, wetting agent and starter nutrients and treated with postemergence applications of the test chemicals formulated in the same manner. Plants ranged in height from 2 to 18 cm (1- to 4-leaf stage).
Treated plants and controls were maintained in a controlled growth environment for 14 to 21 days after which time all species were compared to controls and visually evaluated. Plant response ratings, summarized in Table D, are based on a scale of 0 to 100 where 0 is no effect and 100 is complete control. A dash (-) response means no test result.

[6] = tested on: barnyardgrass (Echinochloa crus-galli); assay: Test F pre-/postemergence: barnyardgrass; conditions: Preemergence
Description: as §1, §2

[7] = tested on: field bindweed (Convolvulus arvensis); assay: Test F pre-/postemergence: field bindweed; conditions: Preemergence
Summary of the method: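 Preemergence treatment of seeds sown in silt loam soil, and postemergence treatment of plants 2–18 cm tall (1- to 4-leaf stage), with compounds in non-phytotoxic solvent plus surfactant. Greenhouse 14–21 days, then visual rating versus controls on 0–100 scale (100 = complete control).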

[8] = 16 g ai/ha, scale 0 to 100, 0 no effect, 100 complete control
[9] = 31 g ai/ha, scale 0 to 100, 0 no effect, 100 complete control
[10] = Postemergence, 31 g ai/ha, scale 0 to 100 (0 no effect, 100 complete control)
[11] = Postemergence, 62 g ai/ha, scale 0 to 100 (0 no effect, 100 complete control)
[12] = Postemergence, 125 g ai/ha, scale 0 to 100, 0 no effect, 100 complete control
[13] = Postemergence, 16 g ai/ha, scale 0 to 100
[14] = Preemergence, 16 g ai/ha, scale 0 to 100, 0 no effect, 100 complete control
[15] = Preemergence, 31 g ai/ha, scale 0 to 100, 0 no effect, 100 complete control
[16] = Preemergence, 62 g ai/ha, scale 0 to 100
[17] = Preemergence, 125 g ai/ha, scale 0 to 100

SMILES	Plant response rating, Goosegrass ([1]; 62 g ai/ha, scale 0 to 100)	Plant response rating, Goosegrass ([1]; 125 g ai/ha, scale 0 to 100)	Plant response rating, Goosegrass ([1]; 250 g ai/ha, scale 0 to 100)	Plant response rating, Crabgrass, Brazil ([2]; 62 g ai/ha, scale 0 to 100)	Plant response rating, Crabgrass, Brazil ([2]; 125 g ai/ha, scale 0 to 100)	Plant response rating, Crabgrass, Brazil ([2]; 250 g ai/ha, scale 0 to 100)	Plant response rating, Nightshade ([3]; 125 g ai/ha, scale 0 to 100)	Plant response rating, Nightshade ([3]; 250 g ai/ha, scale 0 to 100)	Plant response rating: Buckwheat, Wild [4, 10]	Plant response rating: Buckwheat, Wild [4, 11]	Plant response rating: Buckwheat, Wild [4, 12]	Plant response rating, Buckwheat, Wild [4, 13]	Plant response rating, Buckwheat, Wild [4, 14]	Plant response rating, Buckwheat, Wild [4, 15]	Plant response rating, Buckwheat, Wild [4, 16]	Plant response rating, Buckwheat, Wild [4, 17]	Plant response rating: Mustard, Wild [5, 10]	Plant response rating: Mustard, Wild [5, 11]	Plant response rating: Mustard, Wild [5, 12]	Plant response rating, Mustard, Wild [5, 13]	also measured
Cc1nn(-c2ccc(C(F)(F)F)c(F)c2)nc1Oc1ccnc(C(F)(F)F)c1 [Compound 148]	100	100	100	100	100	100	98	98	60	75	70	60	20	30	65	50	100	100	100	55	Plant response rating, Goosegrass [1, 8]: 25; Plant response rating, Goosegrass [1, 9]: 98; Plant response rating, Crabgrass, Brazil [2, 8]: 100; Plant response rating, Crabgrass, Brazil [2, 9]: 100; Plant response rating, Nightshade [3, 8]: 0; Plant response rating, Nightshade [3, 9]: 0; Plant response rating, Mustard, Wild [5, 14]: 20; Plant response rating, Mustard, Wild [5, 15]: 15; Plant response rating, Mustard, Wild [5, 16]: 55; Plant response rating, Mustard, Wild [5, 17]: 95; Plant response rating, Barnyardgrass [6, 8]: 0; Plant response rating, Barnyardgrass [6, 9]: 0; Plant response rating, Barnyardgrass ([6]; 62 g ai/ha, scale 0 to 100): 0; Plant response rating, Barnyardgrass ([6]; 125 g ai/ha, scale 0 to 100): 20; Plant response rating, Barnyardgrass ([6]; 250 g ai/ha, scale 0 to 100): 98; Plant response rating, Field Bindweed [7, 8]: 0; Plant response rating, Field Bindweed [7, 9]: 0; Plant response rating, Field Bindweed ([7]; 62 g ai/ha, scale 0 to 100): 0; Plant response rating, Field Bindweed ([7]; 125 g ai/ha, scale 0 to 100): 20; Plant response rating, Field Bindweed ([7]; 250 g ai/ha, scale 0 to 100): 50
CCc1nn(-c2ccc(C(F)(F)F)cc2)nc1Cc1ccnc(C(F)(F)F)c1 [Compound 155]	100	100	100	100	100	100	100	100	70	70	75	75	10	25	50	70	100	100	100	80	Plant response rating, Mustard, Wild [5, 14]: 55; Plant response rating, Mustard, Wild [5, 15]: 55; Plant response rating, Mustard, Wild [5, 16]: 100; Plant response rating, Mustard, Wild [5, 17]: 100; Plant response rating, Barnyardgrass ([6]; 62 g ai/ha, scale 0 to 100): 30; Plant response rating, Barnyardgrass ([6]; 125 g ai/ha, scale 0 to 100): 30; Plant response rating, Barnyardgrass ([6]; 250 g ai/ha, scale 0 to 100): 100; Plant response rating, Field Bindweed ([7]; 62 g ai/ha, scale 0 to 100): 85; Plant response rating, Field Bindweed ([7]; 125 g ai/ha, scale 0 to 100): 95; Plant response rating, Field Bindweed ([7]; 250 g ai/ha, scale 0 to 100): 100
